This note sets out measurements from patent US20060079453A1, “Hla binding peptides and their uses” (priority 2002, published 2006).

Among the targets are HLA-DR DRB1*0301 (DR3) (Homo sapiens, UniProt P01903+P01911, A100K/A102G/A103R/A169T/F55Y/I96L/K41T/L162R/M171V/P40S/Q125H/Q178H/Q39Y/R42S/S66N/T106N/T262R/W38E/Y61H); HLA-DR DRB1*1101 (DR11) (Homo sapiens, UniProt P01903+P01911, A100R/A169T/A87E/I96F/K41T/L162R/M171V/P40S/Q125H/Q178H/Q39Y/Q99D/R42S/S66Y/T262R/V115G/W38E); HLA-DR DRB3*0101 (DR52) (Homo sapiens, UniProt P01903+P79483); HLA-DR DRB4*0101 (DR53) (Homo sapiens, UniProt P01903+P13762, G164S); HLA-DR DRB5*0101 (DR51) (Homo sapiens, UniProt P01903+Q30154); HLA-DR DRB1*1302 (DR13) (Homo sapiens, UniProt P01903+P01911, A100E/A169T/K41T/L162R/M171V/P40S/Q125H/Q178H/Q39Y/Q99D/R42S/S66N/T262R/V115G/W38E/Y61H); HLA-DR DRB1*1501 (DR15) (Homo sapiens, UniProt P01903+P01911).

Common to all, as to assay: biochemical
Assay type in all cases: binding

A further assay concerns the target HLA-DR DRB1*0401 (DR4) (Homo sapiens, UniProt P01903+P01911, A100K/A169T/F76Y/I96L/K127E/L162R/M171V/N62H/P40V/Q125Y/R42H/S133A/S149N/S66Y/V115G/V209L/W38E). Conditions: DRB1 *0401.
Another assay addresses HLA-DR DRB1*0701 (DR7) (Homo sapiens, UniProt P01903+P01911, A100R/A102G/A103Q/D57E/D86V/E43K/F76Y/K127E/L162R/M171V/P40G/Q125H/Q99D/R33Q/R42Y/R54Q/S133A/S66F/T210M/V115G/Y107V/Y59L/Y89S). Conditions: DRB1 *0701.

Like-named read-outs stand apart in the source and are kept apart here. No end group written: not given here. Some results are limits rather than exact numbers.

HLA-DR DRB1*1302 (DR13), sequence (P01903 26-254 limits assumed, other chains not shown): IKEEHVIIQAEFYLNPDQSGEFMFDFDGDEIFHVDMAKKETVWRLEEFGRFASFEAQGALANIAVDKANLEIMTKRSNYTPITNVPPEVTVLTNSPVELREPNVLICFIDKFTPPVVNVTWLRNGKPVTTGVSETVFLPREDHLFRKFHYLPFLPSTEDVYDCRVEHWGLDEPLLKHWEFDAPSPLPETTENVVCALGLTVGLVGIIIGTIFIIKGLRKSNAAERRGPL
HLA-DR DRB1*1101 (DR11), sequence (P01903 26-254 limits assumed, other chains not shown): as above
HLA-DR DRB1*0301 (DR3), sequence (P01903 26-254 limits assumed, other chains not shown): as above

Turning to GMLPVCPLIPGSSTTSTGP, the IC50 at HLA-DR DRB1*0401 (DR4) was 0.4 µM; at HLA-DR DRB1*0301 (DR3) it was over 900 µM; against HLA-DR DRB1*1101 (DR11) (DRB1 *1101), 2.5 µM; on HLA-DR DRB3*0101 (DR52), over 25 µM.

Regarding VRYTTEGGTKSEVEDVIPEG, the IC50 was over 0.667 µM against HLA-DR DRB1*0401 (DR4), over 30 µM at HLA-DR DRB1*0301 (DR3), over 25 µM against HLA-DR DRB3*0101 (DR52) and over 12.5 µM against HLA-DR DRB1*0701 (DR7).

On to TPDKLTGPFTVRYTTEGGTK, for which the IC50 is over 0.667 µM on HLA-DR DRB1*0401 (DR4), over 900 µM on HLA-DR DRB1*0301 (DR3), over 25 µM on HLA-DR DRB3*0101 (DR52) and over 12.5 µM against HLA-DR DRB1*0701 (DR7).

`CC[C@H](C)[C@H](NC(=O)[C@H](Cc1ccccc1)NC(=O)[C@H](C)NC(=O)[C@H](CCCNC(=N)N)NC(=O)[C@H](CCC(=O)O)NC(=O)[C@H](CC(C)C)NC(=O)[C@H](Cc1ccccc1)NC(=O)[C@H](CCSC)NC(=O)[C@H](CC(C)C)NC(=O)[C@H](CCC(N)=O)NC(=O)[C@@H](N)CC(=O)O)C(=O)N[C@@H](CC(=O)O)C(=O)N1CCC[C@H]1C(=O)N[C@@H](CC(C)C)C(=O)NCC(=O)O`: the IC50 was over 19.7 µM on HLA-DR DRB1*0301 (DR3), 0.0066 µM against HLA-DR DRB4*0101 (DR53) (DRB4 *0101) and 17.1 µM against HLA-DR DRB3*0101 (DR52).

Regarding SAAPLRTITADTFRK [SAAPLRT1TADTFRK], the IC50 at HLA-DR DRB5*0101 (DR51) (DRB5 *0101) came out at 0.045 µM; against HLA-DR DRB4*0101 (DR53) (DRB4 *0101), 0.017 µM; at HLA-DR DRB1*1302 (DR13) (DRBI *1302), 0.809 µM; on HLA-DR DRB1*1101 (DR11) (DRB1 *1101) it was 3.88 µM; at HLA-DR DRB1*1501 (DR15) (DRBI *1501) it was 0.858 µM; on HLA-DR DRB3*0101 (DR52) it was 2.11 µM.

Regarding VGGVYLLPRRGPRIGV, the IC50 on HLA-DR DRB5*0101 (DR51) (read-out: DRB5 *0101) was 0.012 µM; at HLA-DR DRB4*0101 (DR53) (read-out: DRB4 *0101) it was 19.2 µM; at HLA-DR DRB1*1302 (DR13) (read-out: DRBI *1302), over 15.4 µM; at HLA-DR DRB1*1101 (DR11) (read-out: DRB1 *1101), 0.088 µM; at HLA-DR DRB1*1501 (DR15) (read-out: DRBI *1501), 0.0042 µM; on HLA-DR DRB3*0101 (DR52) (read-out: DRB3 *0101), 60.8 µM.

Take FPTIPLSRLFDNAML: the IC50 on HLA-DR DRB1*1302 (DR13) (read-out: DRBI *1302) amounted to 9.31 µM; on HLA-DR DRB1*1101 (DR11) (read-out: DRB1 *1101) it was 46.4 µM; at HLA-DR DRB1*1501 (DR15) (read-out: DRBI *1501) it was 2.77 µM; on HLA-DR DRB3*0101 (DR52) (read-out: DRB3 *0101), 121 µM.

For the compound AATYNFAVLKLMGRGTKF, the IC50 against HLA-DR DRB5*0101 (DR51) (DRB5 *0101) was 0.018 µM; at HLA-DR DRB1*0301 (DR3), over 52.9 µM; on HLA-DR DRB4*0101 (DR53) (DRB4 *0101) it was 1.22 µM; against HLA-DR DRB1*1101 (DR11) (DRB1 *1101), 0.017 µM; at HLA-DR DRB3*0101 (DR52), 70 µM.

Take Ac-NPDAENWNSQFEILEDAA: the IC50 is 50 µM against HLA-DR DRB5*0101 (DR51) (DRB5 *0101); over 10 µM on HLA-DR DRB1*1302 (DR13) (DRBI *1302); over 33.3 µM at HLA-DR DRB1*1101 (DR11) (DRB1 *1101); over 10 µM against HLA-DR DRB1*1501 (DR15) (DRBI *1501); 1 µM on HLA-DR DRB3*0101 (DR52).

Regarding YLVCGERGFFYTKPT, the IC50 at HLA-DR DRB5*0101 (DR51) (DRB5 *0101) is over 28.4 µM; on HLA-DR DRB4*0101 (DR53) (DRB4 *0101), 40.4 µM; on HLA-DR DRB1*1302 (DR13) (DRBI *1302) it was 3.47 µM; against HLA-DR DRB1*1101 (DR11) (DRB1 *1101), over 60.6 µM; against HLA-DR DRB1*1501 (DR15) (DRBI *1501), over 25.6 µM; on HLA-DR DRB3*0101 (DR52) it was 12.8 µM.

DIAAKYKELGY: the IC50 at HLA-DR DRB5*0101 (DR51) (DRB5 *0101) is at least 200 µM; against HLA-DR DRB1*0401 (DR4) it was over 0.471 µM; against HLA-DR DRB1*0301 (DR3), over 900 µM; at HLA-DR DRB1*1101 (DR11) (DRB1 *1101) it was over 10 µM; against HLA-DR DRB3*0101 (DR52) it was over 25 µM.

For LPSWATEDTMTKIRE, the IC50 was over 11.1 µM at HLA-DR DRB4*0101 (DR53) (read-out: DRB4 *0101); over 35 µM on HLA-DR DRB1*1302 (DR13) (read-out: DRBI *1302); over 66.7 µM on HLA-DR DRB1*1101 (DR11) (read-out: DRB1 *1101); over 45.5 µM at HLA-DR DRB1*1501 (DR15) (read-out: DRBI *1501); 5.97 µM on HLA-DR DRB3*0101 (DR52) (read-out: DRB3 *0101).

Regarding TLERPKTLSPGKNGV, the IC50 at HLA-DR DRB5*0101 (DR51) (read-out: DRB5 *0101) was 11.3 µM; at HLA-DR DRB4*0101 (DR53) (read-out: DRB4 *0101) it was 25.7 µM; at HLA-DR DRB1*1302 (DR13) (read-out: DRBI *1302), 0.835 µM; on HLA-DR DRB1*1101 (DR11) (read-out: DRB1 *1101), over 52.6 µM; at HLA-DR DRB1*1501 (DR15) (read-out: DRBI *1501) it was 23.3 µM; on HLA-DR DRB3*0101 (DR52) (read-out: DRB3 *0101) it was over 263 µM.

For the compound DSSLEGNYTLRVDCT, the IC50 was 16.8 µM at HLA-DR DRB5*0101 (DR51) (read-out: DRB5 *0101); 0.0076 µM at HLA-DR DRB1*1302 (DR13) (read-out: DRBI *1302); over 50 µM on HLA-DR DRB1*1101 (DR11) (read-out: DRB1 *1101); 1.2 µM on HLA-DR DRB1*1501 (DR15) (read-out: DRBI *1501); 0.576 µM on HLA-DR DRB3*0101 (DR52) (read-out: DRB3 *0101).
